Results reported in publication PMC10961359, “Targeting hexokinase 2 for oral cancer therapy: structure-based design and validation of lead compounds” (Frontiers in Pharmacology, 2024).

Legend:
[1] = Cytotoxicity in normal HFF1 cells; type: cell-based, human; conditions: human, HFF1 cells (normal)
[2] = tested on: HFF1; experiment: Cytotoxicity in normal HFF1 cells; type: cell-based, human
[3] = tested on: FaDu cells; experiment: Mitochondria membrane potential by TMRE uptake, FaDu; type: cell-based; conditions: 30 μM, 4 h
Protocol: (§1) FaDu and Cal27 cells were treated with test compounds (0.2 million cells per treatment) and were incubated for 1 h with 100 μM of 2-NBDG (Invitrogen, N13195), in glucose free medium, washed with ice-cold PBS, and re-suspended in 500 μL of PBS and maintained on ice to perform flow cytometric analyses within 30 min. The mean fluorescent intensity (MFI) readout reflects the amount of fluorescent glucose analog taken up by the cells, providing insight into their glucose uptake capacity. The percent (%) cell population positive for glucose uptake (shown with a right shift of the histogram peaks) were also plotted for both the cell lines. For MMP analysis, cells were incubated with 200 nM of TMRE (Invitrogen, T669) for 30 min. For each measurement, data was collected for 10,000 events using a BD FACS Aria III (Becton Dickinson, San Jose, CA) instrument.
(§2) Mitochondria utilize the oxidizable substrates to produce a membrane potential as the proton gradient ([Sivandzade et al., 2019]). […] To determine the change in MMP post-treatment with HK2 inhibitors, the cells were treated with 200 nM of TMRE (tetramethyl rhodamine ethyl ester, a cell-permeant cationic dye readily sequestered by active mitochondria) and flow cytometric analyses of TMRE uptake was carried out. […]

[4] = tested on: FaDu cells; experiment: Cell cycle analysis (propidium iodide, flow cytometry), FaDu; type: cell-based; conditions: 10 and 30 μM, 72 h
Protocol: FaDu and Cal27 cells were treated with the test compounds (0.5 million cells per treatment) for 72 h, and harvested for cell cycle analysis (Cat# BD340242) and apoptosis analysis (Cat# BD556547) by flow cytometry according to manufacturer’s instructions.
To determine the effect of HK2 inhibition in the progression of the cell cycle, flow cytometric analysis of compound-treated FaDu and Cal27 cells was carried out 72 h post-treatment. Cell cycle analysis is carried out to quantify the DNA content and estimate the percentages of the cell population in different cell cycle phases via propidium iodide staining. […] To determine the apoptosis-inducing activity of HK2 inhibitors, 10 and 30 μM of compounds H2 and H10 treated FaDu and Cal27 cells were stained with annexin V conjugated with FITC, followed by propidium iodide staining.

[5] = tested on: Cal27 cells; experiment: Mitochondria membrane potential by TMRE uptake, Cal27; type: cell-based; conditions: Cal27, 30 μM, 4 h
Protocol: as §1, §2

With COc1ccc(CNC(=O)c2nc3ccccc3s2)cc1O [Compound 14, N-(3-hydroxy-4methoxybenzyl)benzo[d]thiazole-2-carboxamide] the CC50 [1] was greater than 100 µM, the “Selectivity index (Cal27)” value ([2]; CC50/GI50, HFF1 vs Cal27) was greater than 4.6 and the “Selectivity index (FaDu)” value ([2]; CC50/GI50, HFF1 vs FaDu) was greater than 1.6. The “MMP reduction compared to H10 and CCCP” value [3] was “more effective in reducing the MMP”, the subG1 phase population [4] was “increase in subG1 phase population” and the “MMP reduction compared to H10 and CCCP” value [5] was “more effective in reducing the MMP”.
